Results as given in US12129276B2, “Oxysterols and methods of use thereof” (SAGE THERAPEUTICS, INC., priority 2014, dated 2024).

The compounds below were run against T1, NR1/NR2A glutamate receptors expressed in mammalian cells (Homo sapiens, UniProt Q05586+Q12879) (assay: Whole-cell patch clamp of mammalian cells (IWB, Ion Works Barracuda)). Settings: 3 μM test article, co-application with EC20 L-glutamate and 30 μM glycine.
T1 construct: expressed in transfected cells
Type: cell-based
Experimental: The whole-cell patch-clamp technique was used to investigate the effects of compounds on NR1/NR2A glutamate receptors expressed in mammalian cells.
Test article effects were evaluated in 8-point concentration-response format (4 replicate wells/concentration). All test and control solutions contained 0.3% DMSO and 0.01% Kolliphor® EL (C5135, Sigma). The test article formulations were loaded in a 384-well compound plate using an automated liquid handling system (SciClone ALH3000, Caliper LifeScienses). The measurements were performed using Ion Works Barracuda platform following this procedure: Electrophysiological Procedures: • a) Intracellular solution (mM): 50 mM CsCl, 90 mM CsF, 2 mM MgCl2, 5 mM EGTA, 10 mM HEPES. Adjust to pH 7.2 with CsOH. • b) Extracellular solution, HB-PS (composition in mM): NaCl, 137; KCl, 1.0; CaCl2, 5; HEPES, 10; Glucose, 10; pH adjusted to 7.4 with NaOH (refrigerated until use). • c) Holding potential: −70 mV, potential during agonist/PAM application: −40 mV. Recording Procedure: • a) Extracellular buffer will be loaded into the PPC plate wells (11 μL per well). Cell suspension will be pipetted into the wells (9 μL per well) of the PPC planar electrode. • b) Whole-cell recording configuration will be established via patch perforation with membrane currents recorded by on-board patch clamp amplifiers. • c) Two recordings (scans) will be performed. First, during pre-application of PAM alone (duration of pre-application—5 min) and second, during test articles and agonist (EC20 L-glutamate and 30 μM glycine) co-application to detect positive modulatory effects of the test article.
Test Article Administration: The first pre-application will consist of the addition of 20 μL of 2× concentrated test article solution and, second, of 20 μL of 1× concentrated test article and agonist at 10 μL/s (2 second total application time).

T1 sequence (Q12879 23-1464, other chains not shown): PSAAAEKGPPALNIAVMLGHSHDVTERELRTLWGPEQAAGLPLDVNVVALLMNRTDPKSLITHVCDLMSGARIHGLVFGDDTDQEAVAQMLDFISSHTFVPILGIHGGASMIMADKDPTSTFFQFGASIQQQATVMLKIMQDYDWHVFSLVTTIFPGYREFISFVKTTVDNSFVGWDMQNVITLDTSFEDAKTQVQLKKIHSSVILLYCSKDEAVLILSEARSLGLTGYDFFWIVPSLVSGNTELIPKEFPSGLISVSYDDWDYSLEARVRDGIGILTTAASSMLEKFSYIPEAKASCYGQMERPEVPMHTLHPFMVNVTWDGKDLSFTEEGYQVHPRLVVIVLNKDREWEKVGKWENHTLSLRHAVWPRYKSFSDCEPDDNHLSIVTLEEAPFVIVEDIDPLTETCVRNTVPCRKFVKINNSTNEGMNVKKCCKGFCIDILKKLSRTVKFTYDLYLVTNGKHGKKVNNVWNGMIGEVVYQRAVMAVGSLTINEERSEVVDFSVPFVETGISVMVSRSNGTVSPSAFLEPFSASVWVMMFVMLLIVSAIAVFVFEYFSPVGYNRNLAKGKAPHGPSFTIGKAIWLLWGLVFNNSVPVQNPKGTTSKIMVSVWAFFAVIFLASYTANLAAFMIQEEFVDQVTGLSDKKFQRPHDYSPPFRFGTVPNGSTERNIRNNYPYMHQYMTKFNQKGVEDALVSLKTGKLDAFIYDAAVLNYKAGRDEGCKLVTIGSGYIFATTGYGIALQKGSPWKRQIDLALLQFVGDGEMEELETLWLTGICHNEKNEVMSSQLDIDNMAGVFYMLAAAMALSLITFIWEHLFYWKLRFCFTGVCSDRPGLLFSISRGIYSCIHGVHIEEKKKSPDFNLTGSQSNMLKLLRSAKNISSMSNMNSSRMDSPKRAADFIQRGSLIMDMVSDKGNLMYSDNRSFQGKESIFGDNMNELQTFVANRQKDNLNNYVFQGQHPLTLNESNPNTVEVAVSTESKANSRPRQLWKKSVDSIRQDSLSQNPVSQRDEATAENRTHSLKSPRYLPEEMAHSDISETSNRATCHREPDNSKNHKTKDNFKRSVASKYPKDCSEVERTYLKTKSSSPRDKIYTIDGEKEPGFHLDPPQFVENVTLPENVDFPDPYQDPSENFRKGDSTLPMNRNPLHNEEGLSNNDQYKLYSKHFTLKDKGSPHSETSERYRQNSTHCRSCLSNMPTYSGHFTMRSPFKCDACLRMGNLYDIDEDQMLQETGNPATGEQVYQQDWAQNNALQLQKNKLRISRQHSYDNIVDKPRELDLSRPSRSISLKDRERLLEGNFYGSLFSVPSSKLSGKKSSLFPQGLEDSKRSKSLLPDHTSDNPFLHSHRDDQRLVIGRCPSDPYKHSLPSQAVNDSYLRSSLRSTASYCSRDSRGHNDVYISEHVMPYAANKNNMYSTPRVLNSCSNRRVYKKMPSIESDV

| SMILES | GluN2A PCA IWB Ephys % potentiation at 3 μM |
| --- | --- |
| COC[C@]12CC[C@](C)(O)C[C@@H]1CC[C@H]1[C@@H]3CC[C@H]([C@H](C)CCC(O)C(F)(F)F)[C@@]3(C)CC[C@@H]12 (stereo partly shown) | B (“B” indicates potentiation of >150%) |
| COC[C@]12CC[C@](C)(O)CC1=CC[C@@H]1[C@@H]2CC[C@]2(C)[C@@H]([C@H](C)CCC(O)C(F)(F)F)CC[C@@H]12 (stereo partly shown) | A (“A” indicates 10 to 150%) |
| CCC(O)(CC)CC[C@@H](C)[C@H]1CC[C@H]2[C@@H]3CC=C4C[C@@](C)(O)CC[C@]4(COC)[C@H]3CC[C@]12C | A (“A” indicates 10 to 150%) |
| COC[C@]12CC[C@](C)(O)CC1=CC[C@@H]1[C@@H]2CC[C@]2(C)[C@@H]([C@H](C)CCC(C)(C)O)CC[C@@H]12 [drawing 28] | A (“A” indicates 10 to 150%) |
| COC[C@]12CC[C@](C)(O)C[C@@H]1CC[C@H]1[C@@H]3CC[C@H]([C@H](C)CCC(C)(C)O)[C@@]3(C)CC[C@@H]12 [drawing 32] | A (“A” indicates 10 to 150%) |

These compounds were tested against T2, NMDA receptor (GRIN1/GRIN2A subunits) expressed in HEK cells (Homo sapiens, UniProt Q05586+Q12879) (assay: Whole-cell patch clamp of mammalian cells, NMDA potentiation). Settings: 1 μM test article, 30 μM NMDA and 5.0 μM glycine, holding potential −80 mV.
T2 construct: expressed in transfected cells
T2 sequence (Q12879 23-1464, other chains not shown): as above
Type: cell-based
Parameters: key: “A” indicates >5 to 50%; B: >50%; C indicates not active in the assay
Experimental: NMDA potentiation was assessed using either whole cell patch clamp of mammalian cells which expressed NMDA receptors, or using two-electrode voltage clamp (TEVC) of Xenopus laevis oocytes expressing NMDA receptors.
The whole-cell patch-clamp technique was used to investigate the effects of compounds on the NMDA receptor (GRIN1/GRIN2A subunits) expressed in HEK cells. NMDA/Glycine peak and steady-state currents were recorded from stably transfected cells expressing the NMDA receptor and the modulatory effects of the test items on these currents were investigated.
Cells were stably transfected with human GRIN1 (variant NR1-3). These cells were transiently transfected (Lipofectamine™) with GRIN2A cDNA and CD8 (pLeu) antigene cDNA. About 24-72 hours following transfection 1 μl Dynabeads M-45 CD8 was added to identify successfully transfected cells (Jurman et al., Biotechniques (1994) 17:876-881). Cells were passaged to a confluence of 50-80%. Cells were seeded onto Poly-L-Lysine coated cover slips covered with culture complete medium in a 35 mm culture dish. Confluent clusters of cells are electrically coupled (Pritchett et al., Science (1988), 242:1306-8). Because responses in distant cells are not adequately voltage clamped and because of uncertainties about the extent of coupling (Verdoorn et al., Neuron (1990), 4:919-28), cells were cultivated at a density that enables single cells (without visible connections to neighboring cells) to be measured. Cells were incubated at 37° C. in a humidified atmosphere with 5% CO2 (rel. humidity about 95%). The cells were continuously maintained in and passaged in sterile culture flasks containing a 1:1 mixture of Dulbecco's modified eagle medium and nutrient mixture F-12 (D-MEM/F-12 1×, liquid, with L-Glutamine) supplemented with 9% fetal bovine serum and 0.9% Penicillin/Streptomycin solution. The complete medium was supplemented with 3.0 μg/ml Puromycin.
Whole cell currents were measured with HEKA EPC-10 amplifiers using PatchMaster software. Cell culture dishes for recordings were placed on the dish holder of the microscope and continuously perfused (1 ml/min) with “bath solution” (NaCl 137 mM, KCl 4 mM, CaCl2) 1.8 mM, MgCl2 1 mM, HEPES 10 mM, D-Glucose 10 mM, pH (NaOH) 7.4). All solutions applied to cells including the pipette solution were maintained at room temperature (19° C.-30° C.). After formation of a Gigaohm seal between the patch electrodes and transfected individual HEK 293 cells (pipette resistance range: 2.5 MΩ-6.0 MΩ; seal resistance range: >1 GQ) the cell membrane across the pipette tip was ruptured to assure electrical access to the cell interior (whole-cell patch-configuration). At this point the bath solution is switched to “NMDA bath solution” (NaCl 137 mM, KCl 4 mM, CaCl2) 2.8 mM, HEPES 10 mM, D-Glucose 10 mM, Cremophore 0.02%, pH (NaOH) 7.4). NMDA inward currents were measured upon application of 30 μM NMDA (and 5.0 μM Glycine) to patch-clamped cells (2 applications) for 5 s. The cells were voltage clamped at a holding potential of −80 mV. For the analysis of test articles, NMDA receptors were stimulated by 30 μM NMDA and 5.0 μM Glycine after sequential pre-incubation of increasing concentrations of the test article. Pre-incubation duration was 30 s. Stimulation duration was 5 s Test articles were dissolved in DMSO to form stock solutions of 0.1 mM and 1 mM. Test articles were diluted to 0.1 μM and 1 μM in “NMDA bath solution”. Both concentrations of test articles were tested on each cell. […]

| SMILES | NMDA 1a2A (%) Potentiation 1 μM |
| --- | --- |
| C[C@H](CCC(C)(C)O)[C@H]1CC[C@H]2[C@@H]3CC=C4C[C@@H](O)CC[C@]4(CO)[C@H]3CC[C@]12C | A (“A” indicates >5 to 50%) |
| COC[C@]12CC[C@](C)(O)CC1=CC[C@@H]1[C@@H]2CC[C@]2(C)[C@@H]([C@H](C)CCCO)CC[C@@H]12 | A (“A” indicates >5 to 50%) |
| COC[C@]12CC[C@](C)(O)C[C@@H]1CC[C@H]1[C@@H]3CC[C@H]([C@H](C)CCCO)[C@@]3(C)CC[C@@H]12 | C |
| COC[C@]12CC[C@](C)(O)CC1=CC[C@@H]1[C@@H]2CC[C@]2(C)[C@@H]([C@H](C)CCC(C)(C)O)CC[C@@H]12 [drawing 25] | A (“A” indicates >5 to 50%) |
| COC[C@]12CC[C@](C)(O)C[C@@H]1CC[C@H]1[C@@H]3CC[C@H]([C@H](C)CCC(C)(C)O)[C@@]3(C)CC[C@@H]12 [drawing 26] | B (B: >50%) |
